The experiment has as its target Bruton's Tyrosine Kinase (BTK), inactivated state (Homo sapiens (Human), UniProt Q06187). Description: Bruton's Tyrosine Kinase (BTK) Inhibition TR-FRET (Time Resolved FRET) competition assay. The conditions noted are these: BTK-Eu / Kinase Tracer 178 competition, incubated 18-24 h at 14° C. In kind it is binding. The protocol:
10) Add 50 μL microscint-20 and count ^33P cpm on scintillation counter. • Calculate percent activity from raw data in cpm percent activity=(sample−bkg)/(total activity−bkg)×100 • Calculate IC50 from percent activity, using one-site dose response sigmoidal model y=A+((B−A)/(1+((x/C)^D)))) • x=cmpd conc, y=% activity, A=min, B=max, C=IC50, D=1 (hill slope) Bruton's Tyrosine Kinase (BTK) Inhibition TR-FRET (Time Resolved FRET) Assay
This BTK competition assay measures compound potency (IC50) for the inactivated state of Bruton's Tyrosine Kinase using FRET (Förster/Flouresence Resonance Energy Transfer) technology. The BTK-Eu complex was incubated on ice one hour prior to use at a starting concentration of 50 nM BTK-Bioease™: 10 nM Eu-streptavidin (Perkin-Elmer Catalog# AD0062). The assay buffer consisted of 20 mM HEPES (pH 7.15), 0.1 mM DTT, 10 mM MgCl2, 0.5 mg/ml BSA with 3% Kinase Stabilizer (Fremont Biosolutions, Catalog # STB-K02). After 1 h, the reaction mixture from above was diluted 10 fold in assay buffer to make 5 nM BTK: 1 nM Eu-Streptavidin complex (donor fluorophore). 18 μl of a mixture of 0.11 nM BTK-Eu and 0.11 nM Kinase Tracer 178 (Invitrogen, Catalog # PV5593) with BTK-Eu alone as no negative control, was then dispensed into 384-well flat bottom plates (Greiner, 784076). Compounds to be tested in assay were prepared as 10× concentrations and serial dilution in half-log increments was performed in DMSO so as to generate 10 point curves. To initiate the FRET reaction, compounds prepared as 10× stock in DMSO was added to the plates and the plates were incubated 18-24 h at 14° C.
A general note: In TR-FRET formats the signal depends on donor and acceptor labels being close together.

What is called IC50 is the concentration that gives 50% inhibition.

Sequence of Bruton's Tyrosine Kinase (BTK), inactivated state (Q06187 whole entry): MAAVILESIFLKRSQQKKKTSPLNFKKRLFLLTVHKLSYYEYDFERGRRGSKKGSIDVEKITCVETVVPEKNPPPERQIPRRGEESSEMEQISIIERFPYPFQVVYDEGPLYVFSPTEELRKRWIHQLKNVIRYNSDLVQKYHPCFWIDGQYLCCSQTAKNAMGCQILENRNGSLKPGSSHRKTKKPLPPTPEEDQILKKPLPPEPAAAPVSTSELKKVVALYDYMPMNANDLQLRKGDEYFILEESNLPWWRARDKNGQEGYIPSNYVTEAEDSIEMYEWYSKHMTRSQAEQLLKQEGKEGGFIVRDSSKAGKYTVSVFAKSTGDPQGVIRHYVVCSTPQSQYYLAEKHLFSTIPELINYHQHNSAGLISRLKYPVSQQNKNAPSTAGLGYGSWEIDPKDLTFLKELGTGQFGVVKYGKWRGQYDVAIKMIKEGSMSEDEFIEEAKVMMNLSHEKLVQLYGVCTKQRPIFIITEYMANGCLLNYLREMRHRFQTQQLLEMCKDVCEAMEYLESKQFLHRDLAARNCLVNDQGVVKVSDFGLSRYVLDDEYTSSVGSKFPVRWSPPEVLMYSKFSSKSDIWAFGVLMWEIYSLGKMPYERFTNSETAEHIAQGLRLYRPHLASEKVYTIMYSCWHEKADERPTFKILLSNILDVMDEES

`Cn1nc(-c2cccc(N3CCc4cc(C(C)(C)C#N)ccc4C3=O)c2CO)cc(Nc2ccc(C(=O)N3CCOCC3)cn2)c1=O` [Compound 1, 2-[2-[2-(hydroxymethyl)-3-[1-methyl-5-[[5-(morpholine-4-carbonyl)pyridin-2-yl]amino]-6-oxopyridazin-3-yl]phenyl]-1-oxo-3,4-dihydroisoquinolin-6-yl]-2-methylpropanenitrile] displayed an IC50 of 11.2 nM. In turn, `Cn1nc(-c2cccc(-n3ccc4cc(C(C)(C)C#N)cc(F)c4c3=O)c2CO)cc(Nc2ccc(OC(C)(C)CO)cn2)c1=O` [Compound 2, 2-[8-fluoro-2-[2-(hydroxymethyl)-3-[5-[[5-(1-hydroxy-2-methylpropan-2-yl)oxypyridin-2-yl]amino]-1-methyl-6-oxopyridazin-3-yl]phenyl]-1-oxoisoquinolin-6-yl]-2-methylpropanenitrile] yielded an IC50 of 1.12 nM. Consider `Cn1nc(-c2cccc(N3CCOc4cc(C(C)(C)CO)ccc4C3=O)c2CO)cc(Nc2ccc(S(C)(=O)=O)cn2)c1=O` [Compound 3, 4-[2-(hydroxymethyl)-3-[1-methyl-5-[(5-methylsulfonylpyridin-2-yl)amino]-6-oxopyridazin-3-yl]phenyl]-8-(1-hydroxy-2-methylpropan-2-yl)-2,3-dihydro-1,4-benzoxazepin-5-one], for which the IC50 came to 52.6 nM. Compound `Cn1cc(-c2cccc(NC(=O)N3Cc4ccc(Cl)cc4C3)c2CO)cc(Nc2ccc(C(=O)N3CCOCC3)cn2)c1=O` [Compound 4, 5-chloro-N-[2-(hydroxymethyl)-3-[1-methyl-5-[[5-(morpholine-4-carbonyl)pyridin-2-yl]amino]-6-oxopyridin-3-yl]phenyl]-1,3-dihydroisoindole-2-carboxamide] showed an IC50 of 31.9 nM.

`Cn1cc(-c2cccc(N3CCc4cc(C(C)(C)C)ncc4C3=O)c2CO)cc(Nc2ccc(C(=O)N3CCOCC3)cn2)c1=O` [Compound 5, 6-tert-butyl-2-[2-(hydroxymethyl)-3-[1-methyl-5-[[5-(morpholine-4-carbonyl)pyridin-2-yl]amino]-6-oxopyridin-3-yl]phenyl]-3,4-dihydro-2,7-naphthyridin-1-one] returned an IC50 of 13.7 nM. With `Cn1nc(-c2cccc(N3CCc4cc(C(C)(C)C)ncc4C3=O)c2CO)cc(Nc2ccc(C(=O)N3CCOCC3)cn2)c1=O` [Compound 6, 6-tert-butyl-2-[2-(hydroxymethyl)-3-[1-methyl-5-[[5-(morpholine-4-carbonyl)pyridin-2-yl]amino]-6-oxopyridazin-3-yl]phenyl]-3,4-dihydro-2,7-naphthyridin-1-one] the figure was 14.6 nM; with `Cc1c(-c2cc(Nc3ccc(C(=O)N4CCOCC4)cn3)c(=O)n(C)n2)cccc1-n1ncc2cc(C(C)(C)C)cc(F)c2c1=O` [Compound 7, 6-tert-butyl-8-fluoro-2-[2-methyl-3-[1-methyl-5-[[5-(morpholine-4-carbonyl)pyridin-2-yl]amino]-6-oxopyridazin-3-yl]phenyl]phthalazin-1-one], 6.5 nM. With `Cn1nc(-c2cccc(N3CCOc4cc(C(C)(C)C)ccc4C3=O)c2CO)cc(Nc2ccc(C(=O)N3CCOCC3)cn2)c1=O` [Compound 8, 8-tert-butyl-4-[2-(hydroxymethyl)-3-[1-methyl-5-[[5-(morpholine-4-carbonyl)pyridin-2-yl]amino]-6-oxopyridazin-3-yl]phenyl]-2,3-dihydro-1,4-benzoxazepin-5-one] the figure was 1.77 nM; with `Cn1nc(-c2cccc(N3CCOc4cc(C(C)(C)C)ccc4C3=O)c2CO)cc(Nc2ccc(S(C)(=O)=O)cn2)c1=O` [Compound 9, 8-tert-butyl-4-[2-(hydroxymethyl)-3-[1-methyl-5-[(5-methylsulfonylpyridin-2-yl)amino]-6-oxopyridazin-3-yl]phenyl]-2,3-dihydro-1,4-benzoxazepin-5-one], 4.24 nM.

Source of the values: US9663494B2, “Inhibitors of bruton's tyrosine kinase” (Hoffmann-La Roche Inc., priority 2013, dated 2017).
